Data: patent publication US20220153718A1, “SYNTHESIS OF STABLE AMORPHOUS APALUTAMIDE” (OLON S.P.A., priority 2019, published 2022)

Assay: Solid-form stability under forced-air drying (XRPD)
Type: physicochemical
Conditions: drying at 90° C. for over 100 hours, under vacuum, in a stove
Protocol: Forced-air drying here means drying at 90° C. for over 100 hours, under vacuum, in a stove.

Compound | Stability of the amorphous form after forced-air drying
CNC(=O)c1ccc(N2C(=S)N(c3cnc(C#N)c(C(F)(F)F)c3)C(=O)C23CCC3)cc1F [amorphous form obtained by evaporation of the solvent after ] [4-{7-[6-cyano-5-(trifluoromethyl)pyridin-3-yl]-8-oxo-6-sulphanylidene-5,7-diazaspiro[3,4]octan-5-yl}-2-fluoro-N-methylbenzamide] | converted to a mixture of amorphous form, form A and form B
CNC(=O)c1ccc(N2C(=S)N(c3cnc(C#N)c(C(F)(F)F)c3)C(=O)C23CCC3)cc1F [stable amorphous form of apalutamide, 4-{7-[6-cyano-5-(trifluoromethyl)pyridin-3-yl]-8-oxo-6-sulphanylidene-5,7-diazaspiro[3,4]octan-5-yl}-2-fluoro-N-methylbenzamide] | stable
